Laboratory results: PMC8881077 (Journal of Enzyme Inhibition and Medicinal Chemistry, 2022)
Where “and” joins values, the source holds several entries; their conditions need not be identical. Identical values can stand only once.

Columns and labels:
[1] = tested on: TNF-α production in LPS-induced BV-2 cells; test: TNF-α production in BV-2 cells, ELISA; type: cell-based; conditions: 1.0 μg/mL LPS
Description: Compounds 5f and 7k were selected to test the anti-inflammatory potency by measuring the production of inflammatory mediators TNF-α and NO in LPS-induced BV-2 cells[32]^,[33]. • Cytotoxicity of compounds 5f and 7k on BV-2 cells. Firstly, the cytotoxicity of compounds 5f and 7k were tested using an MTT assay. […] In inhibition of LPS-induced, NO production was tested through the Griess reaction method. […] In addition, to further investigate the effects of compounds 5f and 7k on LPS-induced TNF-α production in BV-2 cells, the enzyme-linked immunosorbent assay (ELISA) was used.
Inhibition of LPS-induced TNF-α production was evaluated with an enzyme-linked immunosorbent assay (ELISA). The methods of BV-2 cells culture, adding different concentrations of tested compounds 5f or 7k (1 μM, 3 μM and 9 μM) (10 μL) and LPS (1.0 μg/mL, 10 μL) and setting blank control group were the same as above in cytotoxicity assay. Then, the supernatant of the cell culture solution (50 μL) was added to a 96-well plate and the release of cytokine TNF-α was measured by ELISA according to the instructions of the ELISA kit.

huAChE = huAChE (Homo sapiens, UniProt P22303); test: biochemical; type: biochemical; parameters: AChE from 5% rat cortex homogenate or human erythrocytes (Sigma Co.); purchased Sigma Co; host or cells: human erythrocytes; conditions: for SI: Selectivity Index = IC50 (BuChE)/IC50 (AChE), human enzymes; for IC50: from human erythrocytes, read-out: IC50 ± SD huAChE
Description: (§1) The AChE and BuChE inhibitory activities of the synthesised compounds were evaluated using the Ellman assay with slight modification. AChE from 5% rat cortex homogenate or human erythrocytes (Sigma Co.). BuChE from rat serum or human serum (Sigma Co.).

BV-2 cells = test: Cytotoxicity on BV-2 cells, MTT assay; type: cell-based; conditions: 1 μM, 3 μM and 9 μM
Description: Compounds 5f and 7k were selected to test the anti-inflammatory potency by measuring the production of inflammatory mediators TNF-α and NO in LPS-induced BV-2 cells[32]^,[33]. • Cytotoxicity of compounds 5f and 7k on BV-2 cells. Firstly, the cytotoxicity of compounds 5f and 7k were tested using an MTT assay. […] In inhibition of LPS-induced, NO production was tested through the Griess reaction method. […] […]. In addition, to further investigate the effects of compounds 5f and 7k on LPS-induced TNF-α production in BV-2 cells, the enzyme-linked immunosorbent assay (ELISA) was used. […].
The anti-neuroinflammatory property of compounds 5f and 7k was assessed using BV-2 cells by evaluating the level of NO production and TNF-α production[32]^,[33]. Firstly, the cytotoxicity of compounds 5f and 7k was tested on BV-2 cells using an MTT assay. BV-2 cells were seeded in DMEM (100 μL) and cultured in a 96-well cell culture microplate and incubated in a humidified incubator containing 5% CO2 at 37 °C for 24 h. Then, 10 μL of 5f or 7k were added to cells in triplicate wells, followed by incubation for another 30 min. […] Finally, the crystals obtained were dissolved in DMSO (200 μ L) and OD values were measured at 490 nm. The results were recorded and expressed as the percent cell viability compared to the control group.

PC12 cells [2] = test: Cytotoxicity on PC12 cells, MTT assay; type: cell-based; conditions: 40 μM
Aβ1–42 = Aβ1–42 (Homo sapiens, UniProt P05067); test: Self-induced Aβ1–42 aggregation, Thioflavin T fluorescence; type: biochemical; conditions: tested compounds and Aβ1–42 25 μM
Description: The Thioflavin T-based flurometric assay was employed to test the inhibition potency on self-induced/Cu^2+-induced Aβ1-42 aggregation.

[3] = Metal-chelating property, UV-visual spectrometry; type: physicochemical; conditions: for molar ratio at intersection: complex with Cu^2+; for maximum absorption wavelength after adding AlCl3: compound and AlCl3 37.5 μM in methanol; for maximum absorption wavelength after adding CuCl2: compound and CuCl2 37.5 μM in methanol; for maximum absorption after adding FeSO4: compound and FeSO4 37.5 μM in methanol; for maximum absorption after adding ZnCl2: compound and ZnCl2 37.5 μM in methanol
Description: The chelating property of compounds 5f and 7k were determined by UV-visual spectrometry and biometals such as Cu^2+, Zn^2+, Al^3+ and Fe^2+ were applied[19]^,[20]. […] The stoichiometry of the 5f-Cu^2+ complex was determined using the molar ratio method by preparing solutions of compound 5f with increasing amounts of CuCl2 at 386 nm.
Further, the stoichiometry of the 7k-Cu^2+ complex was determined using the molar ratio method at 385 nm.
The metal chelation property was investigated by UV absorption in a Shimadzu UV-2450 spectrophotometer. The detailed procedure referenced our previous work[20]^,[22].

ratAChE = molecular target: T1, ratAChE (Rattus norvegicus, UniProt P37136); test: biochemical; conditions: for SI: Selectivity Index = IC50 (BuChE)/IC50 (AChE), rat enzymes; for IC50: from 5% rat cortex homogenate, read-out: IC50 ± SD ratAChE
T1 construct: AChE from 5% rat cortex homogenate or human erythrocytes (Sigma Co.); from tissue; host or cells: 5% rat cortex homogenate
T1 sequence (P37136 32-614): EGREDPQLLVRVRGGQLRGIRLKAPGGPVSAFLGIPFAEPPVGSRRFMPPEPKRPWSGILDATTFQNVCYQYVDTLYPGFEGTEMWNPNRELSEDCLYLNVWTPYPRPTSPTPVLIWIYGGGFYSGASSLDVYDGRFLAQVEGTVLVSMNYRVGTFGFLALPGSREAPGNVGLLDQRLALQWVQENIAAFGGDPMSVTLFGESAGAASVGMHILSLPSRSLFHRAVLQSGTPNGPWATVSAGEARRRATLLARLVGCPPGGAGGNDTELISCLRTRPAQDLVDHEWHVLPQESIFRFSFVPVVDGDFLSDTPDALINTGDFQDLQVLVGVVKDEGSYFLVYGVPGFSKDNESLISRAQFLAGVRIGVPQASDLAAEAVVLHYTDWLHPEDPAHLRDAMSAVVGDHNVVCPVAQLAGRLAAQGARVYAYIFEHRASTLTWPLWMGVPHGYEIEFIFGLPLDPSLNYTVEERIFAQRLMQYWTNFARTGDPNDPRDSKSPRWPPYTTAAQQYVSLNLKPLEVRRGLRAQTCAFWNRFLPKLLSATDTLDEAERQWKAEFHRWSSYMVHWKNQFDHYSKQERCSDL
Description: as §1

PC12 cells [4] = test: Neuroprotective effect on H2O2-induced PC12 cells injury, MTT assay; type: cell-based; conditions: 100 μM H2O2, PC12 cells
[5] = PAMPA-BBB; for Pe: final concentration 100 μg/mL
AChE PAS = AChE PAS (Homo sapiens, UniProt P22303); test: biochemical; type: binding
AChE PAS, sequence (P22303 32-614): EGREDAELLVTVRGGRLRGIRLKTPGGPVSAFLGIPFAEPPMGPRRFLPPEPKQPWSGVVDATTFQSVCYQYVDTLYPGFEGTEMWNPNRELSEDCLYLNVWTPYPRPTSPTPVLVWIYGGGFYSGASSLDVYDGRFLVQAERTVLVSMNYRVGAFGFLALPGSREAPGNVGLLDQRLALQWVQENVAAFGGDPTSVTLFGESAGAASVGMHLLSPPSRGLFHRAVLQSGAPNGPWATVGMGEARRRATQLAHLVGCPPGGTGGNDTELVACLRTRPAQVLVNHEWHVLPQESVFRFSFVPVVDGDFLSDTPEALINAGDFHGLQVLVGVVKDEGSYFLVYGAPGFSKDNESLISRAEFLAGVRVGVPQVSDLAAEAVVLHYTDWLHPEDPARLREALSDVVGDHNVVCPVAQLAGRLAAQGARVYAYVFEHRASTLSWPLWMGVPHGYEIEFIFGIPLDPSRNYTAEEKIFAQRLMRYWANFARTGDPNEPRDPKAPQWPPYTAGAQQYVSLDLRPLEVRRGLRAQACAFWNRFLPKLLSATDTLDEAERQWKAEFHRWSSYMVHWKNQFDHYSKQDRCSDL

huAChE, sequence (P22303 32-617 isoform P22303-2 limits assumed): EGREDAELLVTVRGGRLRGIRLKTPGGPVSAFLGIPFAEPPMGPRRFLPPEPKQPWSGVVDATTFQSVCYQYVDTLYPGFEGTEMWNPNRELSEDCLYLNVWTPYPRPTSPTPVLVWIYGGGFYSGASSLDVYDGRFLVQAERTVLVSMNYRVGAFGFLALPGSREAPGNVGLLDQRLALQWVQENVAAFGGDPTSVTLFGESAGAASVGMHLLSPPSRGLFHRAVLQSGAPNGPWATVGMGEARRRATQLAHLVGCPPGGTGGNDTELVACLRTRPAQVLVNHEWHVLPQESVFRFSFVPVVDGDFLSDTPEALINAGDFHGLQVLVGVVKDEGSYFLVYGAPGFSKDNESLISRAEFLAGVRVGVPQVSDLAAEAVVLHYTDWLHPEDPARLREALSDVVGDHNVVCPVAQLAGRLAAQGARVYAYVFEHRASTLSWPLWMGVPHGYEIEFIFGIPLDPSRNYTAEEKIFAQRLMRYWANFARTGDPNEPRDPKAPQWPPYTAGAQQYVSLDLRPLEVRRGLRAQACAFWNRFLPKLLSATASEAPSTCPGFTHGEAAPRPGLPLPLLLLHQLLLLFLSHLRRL
Aβ1–42, sequence (P05067 672-713): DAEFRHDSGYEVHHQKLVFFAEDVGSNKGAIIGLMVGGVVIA

Molecule	TNF-α production ([1]; 1 μM) [pg/mL]	TNF-α production ([1]; 3 μM) [pg/mL]	TNF-α production ([1]; 9 μM) [pg/mL]	SI (huAChE)	IC50 (huAChE) [nM]	cell viability of BV-2 cells (BV-2 cells)	cytotoxicity on PC12 cells (PC12 cells [2])	molar ratio at intersection [3]	maximum absorption wavelength after adding AlCl3 [3]	maximum absorption wavelength after adding CuCl2 [3] [nm]	maximum absorption after adding FeSO4 [3]	maximum absorption after adding ZnCl2 [3]	SI (ratAChE)	IC50 (ratAChE) [nM]	Prediction [5]	Pe [5]	also measured
7-((6-(benzyl(ethyl)amino)hexyl)oxy)-2–(4-((6-(benzyl(ethyl)amino)hexyl)oxy)phenyl)-5-hydroxychroman-4-one [Compound 7k]	1295	915	553	14.4	570 ± 20	did not show obvious change	did not show any cytotoxicity	1.1	did not show an obvious change	385	did not show an obvious change	did not show an obvious change	18.7	790 ± 60	CNS+ (Pe > 3.44 displayed high BBB permeation)	11.7 ×10^−6 cm/s and 11.7 ± 0.54 ×10^−6 cm/s	inhibitory rate of TNF-α production ([1]; 1 μM): 23.8%; inhibitory rate of TNF-α production ([1]; 3 μM): 46.2%; inhibitory rate of TNF-α production ([1]; 9 μM): 67.5%; Inhibition of Aβ1–42 aggregation, Self-induced (%) (Aβ1–42): 43.8 ± 0.51%; cell viability (PC12 cells [4]; compound 2.5 μM): 58.3%; cell viability (PC12 cells [4]; compound 5.0 μM): 63.7%; cell viability (PC12 cells [4]; compound 10.0 μM): 69.8%; Propidium iodide displacement from AChE PAS (% inhibition) (AChE PAS; 10 μM): 23.1 ± 1.2%; Propidium iodide displacement from AChE PAS (% inhibition) (AChE PAS; 50 μM): 34.3 ± 2.1%
CCN(CCCCCOc1cc(O)c2c(c1)OC(c1ccc(O)cc1)CC2=O)Cc1ccccc1 (centres unmarked) [Compound 5f, 7-((5-(benzyl(ethyl)amino)pentyl)oxy)-5-hydroxy-2–(4-hydroxyphenyl)chroman-4-one]	1130	728	394	6.9	910 ± 20	did not show obvious change	did not show any cytotoxicity	1.1	388 nm	386	did not present obvious shift	did not present obvious shift	9.9	1700 ± 80	CNS+ (Pe > 3.44 displayed high BBB permeation)	6.9e-06 cm/s	inhibition at 1 µM ([1]; Mus musculus, BV-2, 1 μM, read-out: inhibitory rate of TNF-α production): 33.5%; inhibition at 3 µM ([1]; Mus musculus, BV-2, 3 μM, read-out: inhibitory rate of TNF-α production): 57.2%; inhibition at 9 µM ([1]; Mus musculus, BV-2, 9 μM, read-out: inhibitory rate of TNF-α production): 76.8%; inhibition at 25 µM (Aβ1–42): 62.1 ± 0.38%; viability at 2.5 µM (PC12 cells [4]; Rattus norvegicus, PC-12, compound 2.5 μM, read-out: cell viability): 62.9%; viability at 5 µM (PC12 cells [4]; Rattus norvegicus, PC-12, compound 5.0 μM, read-out: cell viability): 68.2%; viability at 10 µM (PC12 cells [4]; Rattus norvegicus, PC-12, compound 10.0 μM, read-out: cell viability): 73.4%; inhibition at 10 µM (AChE PAS; 10 μM, read-out: Propidium iodide displacement from AChE PAS (% inhibition)): 25.7 ± 1.9%; inhibition at 50 µM (AChE PAS; 50 μM, read-out: Propidium iodide displacement from AChE PAS (% inhibition)): 36.9 ± 3.5%
